Biological target: IDO1 (Homo sapiens, UniProt P14902)
Experiment: IDO1 Cellular Assay in HeLa Cells Stimulated with IFNγ
Format: cell-based
Details: read-out: HeLa Cell Potency, IC50

Sequence of IDO1 (P14902 whole entry): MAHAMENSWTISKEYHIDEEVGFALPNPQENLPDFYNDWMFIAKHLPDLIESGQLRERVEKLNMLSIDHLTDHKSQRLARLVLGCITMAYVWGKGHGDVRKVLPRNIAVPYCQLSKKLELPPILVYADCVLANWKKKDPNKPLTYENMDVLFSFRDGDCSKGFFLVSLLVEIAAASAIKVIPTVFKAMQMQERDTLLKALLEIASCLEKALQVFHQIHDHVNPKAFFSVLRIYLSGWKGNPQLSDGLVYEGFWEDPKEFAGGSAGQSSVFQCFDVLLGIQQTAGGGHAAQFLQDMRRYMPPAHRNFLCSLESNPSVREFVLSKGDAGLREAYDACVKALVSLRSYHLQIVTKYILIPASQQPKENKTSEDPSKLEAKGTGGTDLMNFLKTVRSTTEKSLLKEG

Cc1ccc(N2CCN(C(=O)Cn3nc(C(=O)N4C[C@@H](C)O[C@@H](C)C4)c4c3CCC4)CC2)c(F)c1 [Example 56, 2-{3-[(2R,6S)-2,6-dimethylmorpholine-4-carbonyl]-5,6-dihydrocyclopenta[c]pyrazol-1(4H)-yl}-1-[4-(2-fluoro-4-methylphenyl)piperazin-1-yl]ethan-1-one]
IC50: 126 nM

C[C@@H]1CN(C(=O)c2nn(CC(=O)N3CCN(c4ccc(F)c(C(F)F)c4)CC3)c3c2CCC3)C[C@H](C)O1 [Example 58, 1-{4-[3-(difluoromethyl)-4-fluorophenyl]piperazin-1-yl}-2-{3-[(2R,6S)-2,6-dimethylmorpholine-4-carbonyl]-5,6-dihydrocyclopenta[c]pyrazol-1(4H)-yl}ethan-1-one]
IC50: 447 nM

C[C@@H]1CN(C(=O)c2nn(CC(=O)N3CCN(c4ccccc4C4CC4)CC3)c3c2CCC3)C[C@H](C)O1 [Example 59, 1-[4-(2-cyclopropylphenyl)piperazin-1-yl]-2-{3-[(2R,6S)-2,6-dimethylmorpholine-4-carbonyl]-5,6-dihydrocyclopenta[c]pyrazol-1(4H)-yl}ethan-1-one]
IC50: 319 nM

CCc1cccc(N2CCN(C(=O)Cn3nc(C(=O)N4C[C@@H](C)O[C@@H](C)C4)c4c3CCC4)CC2)c1 [Example 60, 2-{3-[(2R,6S)-2,6-dimethylmorpholine-4-carbonyl]-5,6-dihydrocyclopenta[c]pyrazol-1(4H)-yl}-1-[4-(3-ethylphenyl)piperazin-1-yl]ethan-1-one]
IC50: 209 nM

Cc1ccc(N2CCN(C(=O)Cn3nc(C(=O)N4C[C@@H](C)O[C@@H](C)C4)c4c3CCC4)CC2)cc1Cl [Example 61, 1-[4-(3-chloro-4-methylphenyl)piperazin-1-yl]-2-{3-[(2R,6S)-2,6-dimethylmorpholine-4-carbonyl]-5,6-dihydrocyclopenta[c]pyrazol-1(4H)-yl}ethan-1-one]
IC50: 65.6 nM

COc1cc(F)c(N2CCN(C(=O)Cn3nc(C(=O)N4C[C@@H](C)O[C@@H](C)C4)c4c3CCC4)CC2)cc1F [Example 62, 1-[4-(2,5-difluoro-4-methoxyphenyl)piperazin-1-yl]-2-{3-[(2R,6S)-2,6-dimethylmorpholine-4-carbonyl]-5,6-dihydrocyclopenta[c]pyrazol-1(4H)-yl}ethan-1-one]
IC50: 146 nM

COc1c(C#N)cccc1N1CCN(C(=O)Cn2nc(C(=O)N3C[C@@H](C)O[C@@H](C)C3)c3c2CCC3)CC1 [Example 63, 3-[4-({3-[(2R,6S)-2,6-dimethylmorpholine-4-4-carbonyl]-5,6-dihydrocyclopenta[c]pyrazol-1(4H)-yl}acetyl)piperazin-1-yl]-2-methoxybenzonitrile]
IC50: 335 nM

Cc1ccc(N2CCN(C(=O)Cn3nc(C(=O)N4C[C@@H](C)O[C@@H](C)C4)c4c3CCC4)CC2)cc1F [Example 64, 2-{3-[(2R,6S)-2,6-dimethylmorpholine-4-carbonyl]-5,6-dihydrocyclopenta[c]pyrazol-1(4H)-yl}-1-[4-(3-fluoro-4-methylphenyl)piperazin-1-yl]ethan-1-one]
IC50: 30.4 nM

COc1c(F)cccc1N1CCN(C(=O)Cn2nc(C(=O)N3C[C@@H](C)O[C@@H](C)C3)c3c2CCC3)CC1 [Example 65, 2-{3-[(2R,6S)-2,6-dimethylmorpholine-4-carbonyl]-5,6-dihydrocyclopenta[c]pyrazol-1(4H)-yl}-1-[4-(3-fluoro-2-methoxyphenyl)piperazin-1-yl]ethan-1-one]
IC50: 145 nM

C[C@@H]1CN(C(=O)c2nn(CC(=O)N3CCN(c4ccc(Cl)cc4Cl)CC3)c3c2CCC3)C[C@H](C)O1 [Example 67, 1-[4-(2,4-dichlorophenyl)piperazin-1-yl]-2-{3-[(2R,6S)-2,6-dimethylmorpholine-4-carbonyl]-5,6-dihydrocyclopenta[c]pyrazol-1(4H)-yl}ethan-1-one]
IC50: 133 nM

C[C@@H]1CN(C(=O)c2nn(CC(=O)N3CCN(c4cccc(Cl)c4Cl)CC3)c3c2CCC3)C[C@H](C)O1 [Example 69, 1-[4-(2,3-dichlorophenyl)piperazin-1-yl]-2-{3-[(2R,6S)-2,6-dimethylmorpholine-4-carbonyl]-5,6-dihydrocyclopenta[c]pyrazol-1(4H)-yl}ethan-1-one]
IC50: 12.1 nM

C[C@@H]1CN(C(=O)c2nn(CC(=O)N3CCN(c4ccc(F)c(F)c4F)CC3)c3c2CCC3)C[C@H](C)O1 [Example 70, 2-{3-[(2R,6S)-2,6-dimethylmorpholine-4-carbonyl]-5,6-dihydrocyclopenta[c]pyrazol-1(4H)-yl}-1-[4-(2,3,4-trifluorophenyl)piperazin-1-yl]ethan-1-one]
IC50: 235 nM

Cc1cc(C)c(N2CCN(C(=O)Cn3nc(C(=O)N4C[C@@H](C)O[C@@H](C)C4)c4c3CCC4)CC2)cc1C [Example 71, 2-{3-[(2R,6S)-2,6-dimethylmorpholine-4-carbonyl]-5,6-dihydrocyclopenta[c]pyrazol-1(4H)-yl}-1-[4-(2,4,5-trimethylphenyl)piperazin-1-yl]ethan-1-one]
IC50: 145 nM

CCc1ccccc1N1CCN(C(=O)Cn2nc(C(=O)N3C[C@@H](C)O[C@@H](C)C3)c3c2CCC3)CC1 [Example 72, 2-{3-[(2R,6S)-2,6-dimethylmorpholine-4-carbonyl]-5,6-dihydrocyclopenta[c]pyrazol-1(4H)-yl}-1-[4-(2-ethylphenyl)piperazin-1-yl]ethan-1-one]
IC50: 125 nM

C[C@@H]1CN(C(=O)c2nn(CC(=O)N3CCN(c4ccc5c(c4)CCCO5)CC3)c3c2CCC3)C[C@H](C)O1 [Example 73, 1-[4-(3,4-dihydro-2H-1-benzopyran-6-yl)piperazin-1-yl]-2-{3-[(2R,6S)-2,6-dimethylmorpholine-4-carbonyl]-5,6-dihydrocyclopenta[c]pyrazol-1(4H)-yl}ethan-1-one]
IC50: 176 nM

C[C@@H]1CN(C(=O)c2nn(CC(=O)N3CCN(c4cc(F)c(F)cc4F)CC3)c3c2CCC3)C[C@H](C)O1 [Example 74, 2-{3-[(2R,6S)-2,6-dimethylmorpholine-4-carbonyl]-5,6-dihydrocyclopenta[c]pyrazol-1(4H)-yl}-1-[4-(2,4,5-trifluorophenyl)piperazin-1-yl]ethan-1-one]
IC50: 289 nM

Cc1ccc(F)cc1N1CCN(C(=O)Cn2nc(C(=O)N3C[C@@H](C)O[C@@H](C)C3)c3c2CCC3)CC1 [Example 75, 2-{3-[(2R,6S)-2,6-dimethylmorpholine-4-carbonyl]-5,6-dihydrocyclopenta[c]pyrazol-1(4H)-yl}-1-[4-(5-fluoro-2-methylphenyl)piperazin-1-yl]ethan-1-one]
IC50: 34.1 nM

C[C@@H]1CN(C(=O)c2nn(CC(=O)N3CCN(c4cc(F)ccc4F)CC3)c3c2CCC3)C[C@H](C)O1 [Example 76, 1-[4-(2,5-difluorophenyl)piperazin-1-yl]-2-{3-[(2R,6S)-2,6-dimethylmorpholine-4-carbonyl]-5,6-dihydrocyclopenta[c]pyrazol-1(4H)-yl}ethan-1-one]
IC50: 439 nM

Cc1c(F)cccc1N1CCN(C(=O)Cn2nc(C(=O)N3C[C@@H](C)O[C@@H](C)C3)c3c2CCC3)CC1 [Example 77, 2-{3-[(2R,6S)-2,6-dimethylmorpholine-4-carbonyl]-5,6-dihydrocyclopenta[c]pyrazol-1(4H)-yl}-1-[4-(3-fluoro-2-methylphenyl)piperazin-1-yl]ethan-1-one]
IC50: 18.3 nM

C[C@@H]1CN(C(=O)c2nn(CC(=O)N3CCN(c4cccc(Cl)c4F)CC3)c3c2CCC3)C[C@H](C)O1 [Example 78, 1-[4-(3-chloro-2-fluorophenyl)piperazin-1-yl]-2-{3-[(2R,6S)-2,6-dimethylmorpholine-4-carbonyl]-5,6-dihydrocyclopenta[c]pyrazol-1(4H)-yl}ethan-1-one]
IC50: 38.2 nM

C[C@@H]1CN(C(=O)c2nn(CC(=O)N3CCN(c4cccc5c4cnn5C)CC3)c3c2CCC3)C[C@H](C)O1 [Example 79, 2-{3-[(2R,6S)-2,6-dimethylmorpholine-4-carbonyl]-5,6-dihydrocyclopenta[c]pyrazol-1(4H)-yl}-1-[4-(1-methyl-1H-indazol-4-yl)piperazin-1-yl]ethan-1-one]
IC50: 83.1 nM

C[C@@H]1CN(C(=O)c2nn(CC(=O)N3CCN(c4cccc5c4CCC5)CC3)c3c2CCC3)C[C@H](C)O1 [Example 80, 1-[4-(2,3-dihydro-1H-inden-4-yl)piperazin-1-yl]-2-{3-[(2R,6S)-2,6-dimethylmorpholine-4-carbonyl]-5,6-dihydrocyclopenta[c]pyrazol-1(4H)-yl}ethan-1-one]
IC50: 6.68 nM

Cc1cccc(N2CCN(C(=O)Cn3nc(C(=O)N4CCC5(CC4)CN(C)C(=O)O5)c4c3CCC4)CC2)c1C [Example 81, 8-(1-(2-(4-(2,3-dimethylphenyl)piperazin-1-yl)-2-oxoethyl)-1,4,5,6-tetrahydrocyclopenta[c]pyrazole-3-carbonyl)-3-methyl-1-oxa-3,8-diazaspiro[4.5]decan-2-one]
IC50: 5.8 nM

Cc1cccc(N2CCN(C(=O)Cn3nc(C(=O)N4CCC(C)(O)CC4)c4c3CCC4)CC2)c1C [Example 82, 1-[4-(2,3-dimethylphenyl)piperazin-1-yl]-2-[3-(4-hydroxy-4-methylpiperidine-1-carbonyl)-5,6-dihydrocyclopenta[c]pyrazol-1(4H)-yl]ethan-1-one]
IC50: 2.75 nM

Cc1cccc(N2CCN(C(=O)Cn3nc(C(=O)N4CCC(=O)N(C)CC4)c4c3CCC4)CC2)c1C [Example 84, 1-(1-{2-[4-(2,3-dimethylphenyl)piperazin-1-yl]-2-oxoethyl}-1,4,5,6-tetrahydrocyclopenta[c]pyrazole-3-carbonyl)-4-methyl-1,4-diazepan-5-one]
IC50: 15.6 nM

Cc1cccc(N2CCN(C(=O)Cn3nc(C(=O)N4CCN(C(=O)CO)CC4)c4c3CCC4)CC2)c1C [Example 85, 1-[4-(2,3-dimethylphenyl)piperazin-1-yl]-2-{3-[4-(hydroxyacetyl)piperazine-1-carbonyl]-5,6-dihydrocyclopenta[c]pyrazol-1(4H)-yl}ethan-1-one]
IC50: 26.5 nM

COC(=O)N1CCN(C(=O)c2nn(CC(=O)N3CCN(c4cccc(C)c4C)CC3)c3c2CCC3)CC1 [Example 86, methyl 4-(1-{2-[4-(2,3-dimethylphenyl)piperazin-1-yl]-2-oxoethyl]-1,4,5,6-tetrahydrocyclopenta[c]pyrazole-3-carbonyl)piperazine-1-carboxylate]
IC50: 4.12 nM

From patent US12264134B2 (Merck Sharp & Dohme LLC, priority 2018, dated 2025)
